From PubChem BioAssay AID1918991 (Molecular Pharmacology Branch, DTP, NCI, 2023)

Tested on: 186277-243-T-J2-PDC complex spheroid growth
Assay: Anticancer human tumor 186277-243-T-J2-PDC patient-derived colon adenocarcinoma cell line growth inhibition [AhR]
Conditions: for IC50: curve of first compound; for viability, T/C: stronger effect = lower value
Procedure, shortened: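 Spheroids combined tumor cells with HUVEC endothelial cells and human MSCs as stroma. AhR antagonists were paired with standard or investigational drugs, each dosed in half-log steps down from near clinical Cmax, or from 10 microM where Cmax was unknown.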

[1] = second compound 0.1 µM, first compound 0.0316 µM
[2] = second compound 0.1 µM, first compound 0.1 µM
[3] = second compound 0.316 µM, first compound 0.0316 µM
[4] = second compound 0.316 µM, first compound 0.1 µM
[5] = second compound 1 µM, first compound 0.0316 µM
[6] = second compound 1 µM, first compound 0.1 µM
[7] = second compound 3.16 µM, first compound 0.0316 µM
[8] = second compound 3.16 µM, first compound 0.1 µM
[9] = second compound 10 µM, first compound 0.0316 µM
[10] = second compound 10 µM, first compound 0.1 µM
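Also: spheroids exposed to compounds for seven days before the viability read.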
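For viability, T/C in this document: luminescent signal used as a stand-in for viable cell amount; 100% = DMSO vehicle control wells.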

Compound `CC1(C)CCC(CN2CCN(c3ccc(C(=O)NS(=O)(=O)c4ccc(NCC5CCOCC5)c([N+](=O)[O-])c4)c(Oc4cnc5[nH]ccc5c4)c3)CC2)=C(c2ccc(Cl)cc2)C1` + Cc1ccccc1N=Nc1ccc(NC(=O)c2ccnn2C)c(C)c1 has an IC50 (second compound 0.1 µM) of 7.46 µM, an IC50 (second compound 0.316 µM) of 6.9 µM and an IC50 (second compound 1 µM) of 7.32 µM. It also gave an IC50 (second compound 3.16 µM) of 6.94 µM, an IC50 (second compound 10 µM) of 6.27 µM and a viability, T/C [1] of 95.1%. It also gave a viability, T/C [2] of 98.9%, a viability, T/C (second compound 0.1 µM, first compound 0.316 µM) of 115% and a viability, T/C (second compound 0.1 µM, first compound 1 µM) of 110%. It also gave a viability, T/C (second compound 0.1 µM, first compound 3.16 µM) of 103%, a viability, T/C (second compound 0.1 µM, first compound 10 µM) of 31.8% and a viability, T/C [3] of 94.1%. For the same compound, the viability, T/C [4] was 108%, the viability, T/C (second compound 0.316 µM, first compound 0.316 µM) was 96.4% and the viability, T/C (second compound 0.316 µM, first compound 1 µM) was 100%. The viability, T/C (second compound 0.316 µM, first compound 3.16 µM) was 87.9%, the viability, T/C (second compound 0.316 µM, first compound 10 µM) was 31.7% and the viability, T/C [5] was 103%. The viability, T/C [6] was 99.3%, the viability, T/C (second compound 1 µM, first compound 0.316 µM) was 110% and the viability, T/C (second compound 1 µM, first compound 1 µM) was 98.2%. The viability, T/C (second compound 1 µM, first compound 3.16 µM) was 110%, the viability, T/C (second compound 1 µM, first compound 10 µM) was 29.8% and the viability, T/C [7] was 91.3%. The viability, T/C [8] was 91.8%, the viability, T/C (second compound 3.16 µM, first compound 0.316 µM) was 100% and the viability, T/C (second compound 3.16 µM, first compound 1 µM) was 94.3%. It also gave a viability, T/C (second compound 3.16 µM, first compound 3.16 µM) of 91.2%, a viability, T/C (second compound 3.16 µM, first compound 10 µM) of 30.9% and a viability, T/C [9] of 88.7%. The viability, T/C [10] was 82.5%, the viability, T/C (second compound 10 µM, first compound 0.316 µM) was 95.3% and the viability, T/C (second compound 10 µM, first compound 1 µM) was 92.5%. The viability, T/C (second compound 10 µM, first compound 3.16 µM) was 85.7% and the viability, T/C (second compound 10 µM, first compound 10 µM) was 25.5%.
`CCN(c1cc(-c2ccc(CN3CCOCC3)cc2)cc(C(=O)NCc2c(C)cc(C)[nH]c2=O)c1C)C1CCOCC1` + Cc1ccccc1N=Nc1ccc(NC(=O)c2ccnn2C)c(C)c1 showed an IC50 (second compound 0.1 µM) greater than 3 µM, an IC50 (second compound 0.316 µM) greater than 3 µM and an IC50 (second compound 1 µM) greater than 3 µM. It also gave an IC50 (second compound 3.16 µM) greater than 3 µM, an IC50 (second compound 10 µM) greater than 3 µM and a viability, T/C (second compound 0.1 µM, first compound 0.00949 µM) of 105%. For the same compound, the viability, T/C (second compound 0.1 µM, first compound 0.03 µM) was 118%, the viability, T/C (second compound 0.1 µM, first compound 0.0949 µM) was 112% and the viability, T/C (second compound 0.1 µM, first compound 0.3 µM) was 108%. For the same compound, the viability, T/C (second compound 0.1 µM, first compound 0.949 µM) was 102%, the viability, T/C (second compound 0.1 µM, first compound 3 µM) was 102% and the viability, T/C (second compound 0.316 µM, first compound 0.00949 µM) was 95.7%. The viability, T/C (second compound 0.316 µM, first compound 0.03 µM) was 109%, the viability, T/C (second compound 0.316 µM, first compound 0.0949 µM) was 100% and the viability, T/C (second compound 0.316 µM, first compound 0.3 µM) was 105%. For the same compound, the viability, T/C (second compound 0.316 µM, first compound 0.949 µM) was 103%, the viability, T/C (second compound 0.316 µM, first compound 3 µM) was 112% and the viability, T/C (second compound 1 µM, first compound 0.00949 µM) was 104%. It also gave a viability, T/C (second compound 1 µM, first compound 0.03 µM) of 102%, a viability, T/C (second compound 1 µM, first compound 0.0949 µM) of 102% and a viability, T/C (second compound 1 µM, first compound 0.3 µM) of 94.5%. For the same compound, the viability, T/C (second compound 1 µM, first compound 0.949 µM) was 100%, the viability, T/C (second compound 1 µM, first compound 3 µM) was 112% and the viability, T/C (second compound 3.16 µM, first compound 0.00949 µM) was 91%. It also gave a viability, T/C (second compound 3.16 µM, first compound 0.03 µM) of 94.7%, a viability, T/C (second compound 3.16 µM, first compound 0.0949 µM) of 99.5% and a viability, T/C (second compound 3.16 µM, first compound 0.3 µM) of 94%. For the same compound, the viability, T/C (second compound 3.16 µM, first compound 0.949 µM) was 107%, the viability, T/C (second compound 3.16 µM, first compound 3 µM) was 104% and the viability, T/C (second compound 10 µM, first compound 0.00949 µM) was 89.9%. For the same compound, the viability, T/C (second compound 10 µM, first compound 0.03 µM) was 91.2%, the viability, T/C (second compound 10 µM, first compound 0.0949 µM) was 86.3% and the viability, T/C (second compound 10 µM, first compound 0.3 µM) was 79.8%. The viability, T/C (second compound 10 µM, first compound 0.949 µM) was 84.2% and the viability, T/C (second compound 10 µM, first compound 3 µM) was 93.2%.
With `Cn1ncnc1C1c2n[nH]c(=O)c3cc(F)cc(c23)NC1c1ccc(F)cc1` (stereo not given) + Cc1ccccc1N=Nc1ccc(NC(=O)c2ccnn2C)c(C)c1 the IC50 (second compound 0.1 µM) was greater than 0.1 µM, the IC50 (second compound 0.316 µM) was greater than 0.1 µM and the IC50 (second compound 1 µM) was greater than 0.1 µM. The IC50 (second compound 3.16 µM) was greater than 0.1 µM, the IC50 (second compound 10 µM) was greater than 0.1 µM and the viability, T/C (second compound 0.1 µM, first compound 0.000316 µM) was 107%. The viability, T/C (second compound 0.1 µM, first compound 0.001 µM) was 101%, the viability, T/C (second compound 0.1 µM, first compound 0.00316 µM) was 107% and the viability, T/C (second compound 0.1 µM, first compound 0.01 µM) was 93.2%. The viability, T/C [1] was 108%, the viability, T/C [2] was 107% and the viability, T/C (second compound 0.316 µM, first compound 0.000316 µM) was 98.8%. It also gave a viability, T/C (second compound 0.316 µM, first compound 0.001 µM) of 113%, a viability, T/C (second compound 0.316 µM, first compound 0.00316 µM) of 101% and a viability, T/C (second compound 0.316 µM, first compound 0.01 µM) of 104%. It also gave a viability, T/C [3] of 107%, a viability, T/C [4] of 103% and a viability, T/C (second compound 1 µM, first compound 0.000316 µM) of 109%. It also gave a viability, T/C (second compound 1 µM, first compound 0.001 µM) of 98.3%, a viability, T/C (second compound 1 µM, first compound 0.00316 µM) of 109% and a viability, T/C (second compound 1 µM, first compound 0.01 µM) of 116%. For the same compound, the viability, T/C [5] was 105%, the viability, T/C [6] was 118% and the viability, T/C (second compound 3.16 µM, first compound 0.000316 µM) was 101%. The viability, T/C (second compound 3.16 µM, first compound 0.001 µM) was 101%, the viability, T/C (second compound 3.16 µM, first compound 0.00316 µM) was 113% and the viability, T/C (second compound 3.16 µM, first compound 0.01 µM) was 105%. It also gave a viability, T/C [7] of 119%, a viability, T/C [8] of 112% and a viability, T/C (second compound 10 µM, first compound 0.000316 µM) of 95.4%. It also gave a viability, T/C (second compound 10 µM, first compound 0.001 µM) of 96.7%, a viability, T/C (second compound 10 µM, first compound 0.00316 µM) of 101% and a viability, T/C (second compound 10 µM, first compound 0.01 µM) of 105%. For the same compound, the viability, T/C [9] was 95.3% and the viability, T/C [10] was 98.7%.
